Each block holds one compound with its values, some of them ahead of it. Numbered stars: 1 amine (or outer) side, 2 acyl side, 3 side chain; on linkers, the order of the positions; unused ones are H or OH. Square brackets hold non-standard residues; d marks the D form. Peptide text beside a SMILES is read from it. * marks the point of attachment. X1 = N#Cc1cnc2ccc(-c3c(-c4ccc(F)c(Cl)c4)ncn3CCOCN*)nn12; C18 diacid = O=C(O)CCCCCCCCCCCCCCCCC(=O)*; C16 diacid = O=C(O)CCCCCCCCCCCCCCC(=O)*; γGlu = O=C(O)[C@H](CCC(=O)[*:2])N[*:1]; PABC = O=C(OCc1ccc(N[*:1])cc1)[*:2]; Palmitoyl = CCCCCCCCCCCCCCCC(=O)*; AEEA = NCCOCCOCC(=O)O
What was measured:
[1] = Prodrug conversion in blood of C57BL/6 mouse xenografted mouse MC38 cells assessed as BMS-986260 AUC (0 to 48 hrs) at 8 mg/kg,iv and measured after 48 hrs by LC-MS/MS analysis; format: ADME, organism-based, MC-38; design: dose 8 mg/kg, time 48 hrs, route iv; conditions: in vivo
[2] = Prodrug conversion in tumor of C57BL/6 mouse xenografted mouse MC38 cells assessed as BMS-986260 Tmax at 8 mg/kg,iv and measured after 48 hrs by LC-MS/MS analysis; format: ADME, organism-based, Neoplasm, MC-38; conditions: in vivo
[3] = Prodrug conversion in heart of C57BL/6 mouse xenografted mouse MC38 cells assessed as BMS-986260 Tmax at 8 mg/kg,iv and measured after 48 hrs by LC-MS/MS analysis; format: ADME, organism-based, MC-38; conditions: in vivo
[4] = Prodrug conversion in blood of C57BL/6 mouse xenografted mouse MC38 cells assessed as BMS-986260 Tmax at 8 mg/kg,iv and measured after 48 hrs by LC-MS/MS analysis; format: ADME, organism-based, MC-38; conditions: in vivo
[5] = Prodrug conversion in tumor of C57BL/6 mouse xenografted mouse MC38 cells assessed as BMS-986260 Cmax at 8 mg/kg,iv and measured after 48 hrs by LC-MS/MS analysis; format: ADME, organism-based, Neoplasm, MC-38; design: dose 8 mg/kg, time 48 hrs, route iv; conditions: in vivo
[6] = Prodrug conversion in heart of C57BL/6 mouse xenografted mouse MC38 cells assessed as BMS-986260 Cmax at 8 mg/kg,iv and measured after 48 hrs by LC-MS/MS analysis; format: ADME, organism-based, MC-38; design: time 48 hrs, dose 8 mg/kg, route iv; conditions: in vivo
[7] = Prodrug conversion in blood of C57BL/6 mouse xenografted mouse MC38 cells assessed as BMS-986260 Cmax at 8 mg/kg,iv and measured after 48 hrs by LC-MS/MS analysis; format: ADME, organism-based, MC-38; design: time 48 hrs, dose 8 mg/kg, route iv; conditions: in vivo
[8] = Drug concentration in C57BL/6 mouse plasma at 6 mg/kg,iv and measured after 24 hrs by LC-MS/MS analysis; format: ADME, organism-based
[9] = AUC in C57BL/6 mouse plasma at 6 mg/kg,iv and measured upto 24 hrs by LC-MS/MS analysis; format: ADME, organism-based; design: dose 6 mg/kg, time < 24 hrs, route iv
[10] = Stability in mouse plasma assessed as parent compound remaining after 24 hrs by HPLC-MS analysis; format: ADME, cell-free; conditions: read-out: Stability
[11] = Stability in rat plasma assessed as parent compound remaining after 24 hrs by HPLC-MS analysis; format: ADME, cell-free; conditions: read-out: Stability
[12] = Prodrug conversion in heart of C57BL/6 mouse xenografted mouse MC38 cells assessed as BMS-986260 AUC (0 to 48 hrs) at 8 mg/kg,iv and measured after 48 hrs by LC-MS/MS analysis; format: ADME, organism-based, MC-38; design: time 48 hrs, dose 8 mg/kg, route iv; conditions: in vivo
[13] = Prodrug conversion in tumor of C57BL/6 mouse xenografted mouse MC38 cells assessed as BMS-986260 AUC (0 to 48 hrs) at 8 mg/kg,iv and measured after 48 hrs by LC-MS/MS analysis; format: ADME, organism-based, Neoplasm, MC-38; design: dose 8 mg/kg, time 48 hrs, route iv; conditions: in vivo
[14] = Prodrug conversion in C57BL/6 mouse xenografted mouse MC38 cells assessed as BMS-986260 ratio of AUC in heart to blood at 8 mg/kg,iv and measured after 48 hrs by LC-MS/MS analysis; format: ADME, organism-based, MC-38; conditions: other tissue
[15] = Prodrug conversion in C57BL/6 mouse xenografted mouse MC38 cells assessed as BMS-986260 ratio of AUC in tumor to blood at 8 mg/kg,iv and measured after 48 hrs by LC-MS/MS analysis; format: ADME, organism-based, MC-38; conditions: tumour
[16] = Prodrug conversion in C57BL/6 mouse xenografted mouse MC38 cells assessed as BMS-986260 ratio of AUC in tumor to heart at 8 mg/kg,iv and measured after 48 hrs by LC-MS/MS analysis; format: ADME, organism-based, MC-38; conditions: in vivo
[17] = Prodrug conversion in blood of C57BL/6 mouse xenografted mouse MC38 cells assessed as BMS-986260 Cmax at 8 mg/kg,iv and measured after 72 hrs by LC-MS/MS analysis; format: ADME, organism-based, MC-38; design: dose 8 mg/kg, time 72 hrs, route iv; conditions: in vivo
[18] = Prodrug conversion in heart of C57BL/6 mouse xenografted mouse MC38 cells assessed as BMS-986260 Cmax at 8 mg/kg,iv and measured after 72 hrs by LC-MS/MS analysis; format: ADME, organism-based, MC-38; design: dose 8 mg/kg, time 72 hrs, route iv; conditions: in vivo
[19] = Prodrug conversion in tumor of C57BL/6 mouse xenografted mouse MC38 cells assessed as BMS-986260 Cmax at 8 mg/kg,iv and measured after 72 hrs by LC-MS/MS analysis; format: ADME, organism-based, Neoplasm, MC-38; design: dose 8 mg/kg, time 72 hrs, route iv; conditions: in vivo
[20] = Prodrug conversion in blood of C57BL/6 mouse xenografted mouse MC38 cells assessed as BMS-986260 Tmax at 8 mg/kg,iv and measured after 72 hrs by LC-MS/MS analysis; format: ADME, organism-based, MC-38; conditions: in vivo
[21] = Prodrug conversion in heart of C57BL/6 mouse xenografted mouse MC38 cells assessed as BMS-986260 Tmax at 8 mg/kg,iv and measured after 72 hrs by LC-MS/MS analysis; format: ADME, organism-based, MC-38; conditions: in vivo
[22] = Prodrug conversion in tumor of C57BL/6 mouse xenografted mouse MC38 cells assessed as BMS-986260 Tmax at 8 mg/kg,iv and measured after 72 hrs by LC-MS/MS analysis; format: ADME, organism-based, Neoplasm, MC-38; conditions: in vivo
[23] = Prodrug conversion in blood of C57BL/6 mouse xenografted mouse MC38 cells assessed as BMS-986260 AUC (0 to 72 hrs) at 8 mg/kg,iv and measured after 72 hrs by LC-MS/MS analysis; format: ADME, organism-based, MC-38; design: time 72 hrs, dose 8 mg/kg, route iv; conditions: in vivo
[24] = Prodrug conversion in heart of C57BL/6 mouse xenografted mouse MC38 cells assessed as BMS-986260 AUC (0 to 72 hrs) at 8 mg/kg,iv and measured after 72 hrs by LC-MS/MS analysis; format: ADME, organism-based, MC-38; design: time 72 hrs, dose 8 mg/kg, route iv; conditions: in vivo
[25] = Prodrug conversion in tumor of C57BL/6 mouse xenografted mouse MC38 cells assessed as BMS-986260 AUC (0 to 72 hrs) at 8 mg/kg,iv and measured after 72 hrs by LC-MS/MS analysis; format: ADME, organism-based, Neoplasm, MC-38; design: time 72 hrs, dose 8 mg/kg, route iv; conditions: in vivo
[26] = Prodrug conversion in C57BL/6 mouse xenografted mouse MC38 cells assessed as BMS-986260 ratio of AUC in heart to blood at 8 mg/kg,iv and measured after 72 hrs by LC-MS/MS analysis; format: ADME, organism-based, MC-38; conditions: other tissue
[27] = Prodrug conversion in blood of C57BL/6 mouse xenografted mouse MC38 cells assessed as BMS-986260 ratio of AUC in tumor to blood at 8 mg/kg,iv and measured after 72 hrs by LC-MS/MS analysis; format: ADME, organism-based, MC-38; conditions: tumour
[28] = Prodrug conversion in blood of C57BL/6 mouse xenografted mouse MC38 cells assessed as BMS-986260 ratio of AUC in tumor to heart at 8 mg/kg,iv and measured after 72 hrs by LC-MS/MS analysis; format: ADME, organism-based, MC-38; conditions: in vivo

concentration at 24 h [8]: > 1000 nM
remaining at 24 h [10]: 84%
remaining at 24 h [11]: 77%
SMILES: CC(C)C[C@H](NC(=O)CC[C@H](NC(=O)CCCCCCCCCCCCCCCCC(=O)O)C(=O)O)C(=O)N[C@@H](CO)C(=O)NCC(=O)N[C@@H](CCCCN)C(=O)Nc1ccc(COC(=O)NCOCCn2cnc(-c3ccc(F)c(Cl)c3)c2-c2ccc3ncc(C#N)n3n2)cc1 ({C18 diacid-γGlu}-LSGK[PABC]-X1)

concentration at 24 h [8]: > 1000 nM
remaining at 24 h [10]: 79%
remaining at 24 h [11]: 81%
SMILES: CC(C)C[C@H](NC(=O)COCCOCCNC(=O)CC[C@H](NC(=O)CCCCCCCCCCCCCCCCC(=O)O)C(=O)O)C(=O)N[C@@H](CO)C(=O)NCC(=O)N[C@@H](CCCCN)C(=O)Nc1ccc(COC(=O)NCOCCn2cnc(-c3ccc(F)c(Cl)c3)c2-c2ccc3ncc(C#N)n3n2)cc1 ({C18 diacid-γGlu-AEEA}-LSGK[PABC]-X1)

AUC at 24 h [9]: 40.9 µM·h
SMILES: CCCCCCCCCCCCCCCC(=O)N[C@@H](CCC(=O)N[C@@H](CC(C)C)C(=O)N[C@@H](CO)C(=O)NCC(=O)N[C@@H](CCCCN)C(=O)Nc1ccc(COC(=O)NCOCCn2cnc(-c3ccc(F)c(Cl)c3)c2-c2ccc3ncc(C#N)n3n2)cc1)C(=O)O ({Palmitoyl-γGlu}-LSGK[PABC]-X1)

Further lines, the compound ahead of its results:

SMILES: CC(C)C[C@H](NC(=O)COCCOCCNC(=O)COCCOCCNC(=O)CC[C@H](NC(=O)CCCCCCCCCCCCCCCCC(=O)O)C(=O)O)C(=O)N[C@@H](CO)C(=O)NCC(=O)N[C@@H](CCCCN)C(=O)Nc1ccc(COC(=O)NCOCCn2cnc(-c3ccc(F)c(Cl)c3)c2-c2ccc3ncc(C#N)n3n2)cc1 ({C18 diacid-γGlu-AEEA-AEEA}-LSGK[PABC]-X1)
AUC [1]: 3 µM·h
Tmax [2]: 1 h
Tmax [3]: 8 h
Tmax [4]: 4 h
Cmax [5]: 470 nM
Cmax [6]: 300 nM
Cmax [7]: 160 nM
concentration at 24 h [8]: > 1000 nM
AUC at 24 h [9]: 348 µM·h
remaining at 24 h [10]: 79%
remaining at 24 h [11]: 84%
AUC [12]: 5.4 µM·h
AUC [13]: 6.6 µM·h
Ratio AUC [14]: 1.8
Ratio AUC [15]: 2.2
Ratio AUC [16]: 1.2

SMILES: CC(C)C[C@H](NC(=O)COCCOCCNC(=O)COCCOCCNC(=O)CC[C@H](NC(=O)CC[C@H](NC(=O)CC[C@H](NC(=O)CCCCCCCCCCCCCCCCC(=O)O)C(=O)O)C(=O)O)C(=O)O)C(=O)N[C@@H](CO)C(=O)NCC(=O)N[C@@H](CCCCN)C(=O)Nc1ccc(COC(=O)NCOCCn2cnc(-c3ccc(F)c(Cl)c3)c2-c2ccc3ncc(C#N)n3n2)cc1 ({C18 diacid-γGlu-γGlu-γGlu-AEEA-AEEA}-LSGK[PABC]-X1)
concentration at 24 h [8]: 5200 nM
AUC at 24 h [9]: 270 µM·h
remaining at 24 h [10]: 96%
remaining at 24 h [11]: 93%
Cmax [17]: 140 nM
Cmax [18]: 270 nM
Cmax [19]: 310 nM
Tmax [20]: 1 h
Tmax [21]: 8 h
Tmax [22]: 8 h
AUC [23]: 4.6 µM·h
AUC [24]: 8.4 µM·h
AUC [25]: 13 µM·h
Ratio AUC [26]: 1.8
Ratio AUC [27]: 2.8
Ratio AUC [28]: 1.6

SMILES: CC(C)C[C@H](NC(=O)COCCOCCNC(=O)COCCOCCNC(=O)CC[C@H](NC(=O)CCCCCCCCCCCCCCC(=O)O)C(=O)O)C(=O)N[C@@H](CO)C(=O)NCC(=O)N[C@@H](CCCCN)C(=O)Nc1ccc(COC(=O)NCOCCn2cnc(-c3ccc(F)c(Cl)c3)c2-c2ccc3ncc(C#N)n3n2)cc1 ({C16 diacid-γGlu-AEEA-AEEA}-LSGK[PABC]-X1)
remaining at 24 h [10]: 54%

SMILES: CC(=O)N[C@@H](CC(C)C)C(=O)N[C@@H](CO)C(=O)NCC(=O)N[C@@H](CCCCN)C(=O)Nc1ccc(COC(=O)NCOCCn2cnc(-c3ccc(F)c(Cl)c3)c2-c2ccc3ncc(C#N)n3n2)cc1 (Ac-LSGK[PABC]-X1)
remaining at 24 h [10]: 6%

SMILES: CC(C)C[C@H](NC(=O)COCCOCCNC(=O)COCCOCCNC(=O)COCCOCCNC(=O)CC[C@H](NC(=O)CCCCCCCCCCCCCCCCC(=O)O)C(=O)O)C(=O)N[C@@H](CO)C(=O)NCC(=O)N[C@@H](CCCCN)C(=O)Nc1ccc(COC(=O)NCOCCn2cnc(-c3ccc(F)c(Cl)c3)c2-c2ccc3ncc(C#N)n3n2)cc1 ({C18 diacid-γGlu-AEEA-AEEA-AEEA}-LSGK[PABC]-X1)
concentration at 24 h [8]: 5200 nM
AUC at 24 h [9]: 270 µM·h
remaining at 24 h [10]: 91%
remaining at 24 h [11]: 76%

Reference: ChEMBL document CHEMBL5260852, “Long-Acting Tumor-Activated Prodrug of a TGFβR Inhibitor” (J Med Chem, 2021)
